Among the data in the Kinase Knowledgebase extract (Sharma et al. 2016) are IC50 values, retold here.

Structures are written as SMILES.

Assay [1] deals with MAPK14 (human) (UniProt Q16539). In words: Inhibition of MAPK14 Kinase Activity.
The target is the same in assay [2]. The assay is described as follows: Assessment of MAPK14 Kinase Activity.

Chain of MAPK14 (human) (Q16539 whole entry, looked up): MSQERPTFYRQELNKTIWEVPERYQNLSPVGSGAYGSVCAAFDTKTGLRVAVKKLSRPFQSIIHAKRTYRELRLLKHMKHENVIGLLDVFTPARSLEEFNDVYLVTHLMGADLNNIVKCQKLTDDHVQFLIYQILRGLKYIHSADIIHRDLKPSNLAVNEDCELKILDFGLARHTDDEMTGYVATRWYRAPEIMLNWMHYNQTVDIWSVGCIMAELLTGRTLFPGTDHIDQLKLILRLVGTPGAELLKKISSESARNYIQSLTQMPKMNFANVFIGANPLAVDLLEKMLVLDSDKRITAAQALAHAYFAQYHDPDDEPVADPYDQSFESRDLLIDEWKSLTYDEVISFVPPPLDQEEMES

In the case of `Cc1c(F)cc(C(=O)NC2CC2)cc1-c1ccc(C(=O)NC(C)(C)C)c[n+]1[O-]`, the IC50 at MAPK14 (human) [1] and against MAPK14 (human) [2] was under 10 µM throughout.
Consider `Cc1cc(C)cc(CNC(=O)c2ccc(-c3cc(C(=O)NC4CC4)cc(F)c3C)[n+]([O-])c2)c1`, for which the IC50 at MAPK14 (human) [1] was under 10 µM.
As to `Cc1c(F)cc(C(=O)NC2CC2)cc1-c1ccc(C(=O)NCc2cc(C(F)(F)F)ccc2F)c[n+]1[O-]`, the IC50 against MAPK14 (human) [1] and against MAPK14 (human) [2] was under 10 µM each time.
Compound `Cc1c(F)cc(C(=O)NC2CC2)cc1-c1ccc(C(=O)NCc2cc(F)ccc2C(F)(F)F)c[n+]1[O-]` registered an IC50 against MAPK14 (human) [1] of under 10 µM.
`Cc1c(F)cc(C(=O)NC2CC2)cc1-c1ccc(C(=O)N[C@@H](C)C(C)C)c[n+]1[O-]`: the IC50 against MAPK14 (human) [1] and against MAPK14 (human) [2] was under 10 µM throughout.
Turning to `Cc1c(F)cc(C(=O)NC2CC2)cc1-c1ccc(C(=O)N[C@@H](C)C(C)(C)C)c[n+]1[O-]`, the IC50 against MAPK14 (human) [1] and against MAPK14 (human) [2] was under 10 µM throughout.
Compound `Cc1c(F)cc(C(=O)NC2CC2)cc1-c1ccc(C(=O)NCC(C)C)c[n+]1[O-]` yielded an IC50 on MAPK14 (human) [1] of under 10 µM.
Turning to `Cc1c(F)cc(C(=O)NC2CC2)cc1-c1ccc(C(=O)N[C@H](C)C(C)(C)C)c[n+]1[O-]`, the IC50 at MAPK14 (human) [1] is under 10 µM.
